The nature of series [1]: AUC of compound related materials after oral dosing of Compound B forms. Type of series: in vivo. The note with it: 250 mg free acid equivalents, formulated tablets, N=4 cynomolgus monkeys. As to the method:
Referring to FIG. 8, the area under the curve (AUC) of compound related materials was compared following dosing of 250 mg of Compound B as powder in capsules of free acid (PIC), formulated tablets of micronized free acid, or formulated tablets of the Na or K salt of Compound B given at the same free acid equivalents. (N=4 cynomolgus monkeys). The formulated, compressed tablet also contained in each case approximately 40.5% lactose, 16.8% microcrystalline cellulose, 1.9% Croscarmellose sodium, 0.5% colloidal silicon dioxide, and 0.9% magnesium stearate.

Series [2] concerns PGC-1α. Put plainly: Expression of PGC-1α mRNA in precursor BAT cells with norepinephrine (quantitative PCR). In kind it is cell-based, mice. The note with it: for PGC-1α mRNA in the presence of norepinephrine: 3 μM compound for seven days, then 1 μM norepinephrine for 2 hours. Here is the method: Another example of the ability of augmented signaling between cyclic nucleotides and compounds of Formula I is shown by the effect on expression of PGC-1a, a known regulator of mitochondrial biogenesis. Increased numbers of mitochondria are predictive of utility for the reduction of body weight.
Precursor BAT cells were isolated as described above and treated with or without 3 μM compounds: 1.] Compound A: 5-(4-(2-(5-ethylpyridin-2-yl)-2-oxoethoxy)benzyl)-1,3-thiazolidine-2,4-dione; 2.] Compound C: 5-(4-(2R)-2-(5-ethylpyridin-2-yl)-2-hydroxyethoxyy)benzyl)-1,3-thiazolidine-2,4-dione; or Compound B: 5-(4-(2-(3-methoxyphenyl)-2-oxoethoxy)benzyl)-1,3-thiazolidine-2,4-dione for seven days followed by treatment with 1 μM norepinephrine for 2 hours. Total RNA was isolated from the cells and the RNA message (mRNA) for PGC-1α was measured by quantitative polymerase chain reactions.

The subject of series [3] is diabetic KKAy mouse. Put plainly: Blood glucose lowering in diabetic KKAy mouse. In kind it is in vivo. The note with it: diabetic KKAy mice (N=6), gavage once daily, plasma glucose after 4 daily doses. As to the method:
In these experiments, free base or sodium salt was given to diabetic KKAy mice (N=6) and blood glucose was measured after 4 days of daily treatment at the doses indicated. KKAy mice, 8-12 weeks of age, were given the doses of the compounds according to the dosages on the X axis of FIG. 9. The compounds were given by gavage once daily at 10 mg/kg. On the fifth day (after 4 daily doses at the levels show) a blood sample was taken to measure plasma glucose.

A short description of series [4]: Bioavailability of sodium salt of Compound A, crossover, oral capsule versus iv injection. In kind it is in vivo. The note with it: 90 mg free base equivalents, 4 male cynomolgus monkeys. Here is the method:
The monkeys fasted overnight and were dosed by oral gavage washed down with 10 ml tap water. Blood samples were taken at 0.25, 0.5, 1, 2, 3, 4, 6, 9, 12, 24, and 48 hours after a single dosage was administered and assayed for drug related materials with a LCMS assay using an internal standard. 90 mg of drug was put in 00 gelatin capsules containing 90 mg of free base equivalents. This was compared to an iv injection of 2 ml/kg and 45 mg of free base solution in 50% hydroxypropyl b-cyclodextran. The absolute availability versus an iv injection was determined for both parent compound and major metabolite.

Series [5] deals with BAT precursor cells. Kind of series: BAT differentiation: UCP1 protein by Western blot. In kind it is cell-based, mice. The note with it: BAT precursor cells treated with 0.1 to 10 μM for 7 days. As to the method: Precursors of BAT are isolated from the interscapular adipose pad of either normal or diabetic mice and cultured in vitro as described below based on the modifications recited in Petrovic N, Shabalina I G, Timmons J A, Cannon B, Nedergaard J. Am. J. Physiol. Endocrinol. Metab. 295:E287-E296, 2008, hereby incorporated by reference.
The brown fat pads are pooled and minced, digested for 45 minutes in isolation buffer containing 0.15% (wt/vol) collagenase. The cell suspension is filtered through a 100 μm nylon filter and centrifuged at 200×g for 5 minutes. […]
Cells are then treated with the compounds, compound salts, or co-crystals thereof being assayed for BAT differentiation. […] The development of the BAT phenotype is assessed by direct measure of the uncoupling protein 1 (UCP1), which is emblematic of brown adipose cells.
Following treatment of the cells, the growth medium is aspirated, rinsed with PBS, and lysed with KHM buffer containing 1% Igepal CA-630, and a protease inhibitor cocktail. The lysate is centrifuged at 8,000×g for 5 minutes (4° C.), the supernatant containing the cell lysate is collected and total protein analyzed using the BCA method. […] Densitometry is conducted on the scanned films using ImageJ software and analyzed using GraphPad Prism software. […]
(A western blot detects proteins with antibodies after separation by electrophoresis.)

Results on eight compounds are retold here after US20120322728A1, “PPAR-SPARING THIAZOLIDINEDIONES AND COMBINATIONS FOR THE TREATMENT OF DIABETES MELLITUS AND OTHER METABOLIC DISEASES” (Metabolic Solutions Development Company, LLC, priority 2009, published 2012).

Turning to `COc1cccc(C(=O)COc2ccc(CC3SC(=O)[N-]C3=O)cc2)c1.[K+]` (stereo not shown) [potassium salt of Compound B, Potassium 5-{4-[2-(3-methoxyphenyl)-2-oxoethoxy]benzyl}-2,4-dioxo-1,3-thiazolidin-3-ide], the “bioavailability (AUC of compound related materials) versus free acid” value in series [1] was “significantly higher bioavailability”. In the case of `COc1cccc(C(=O)COc2ccc(CC3SC(=O)NC3=O)cc2)c1` (stereo not shown) [Compound B, 5-(4-(2-(3-methoxyphenyl)-2-oxoethoxy)benzyl)-1,3-thiazolidine-2,4-dione], in series [2], the “PGC-1α mRNA in the presence of norepinephrine” value (from here on “PGC-1α mRNA in the presence”) is given as “increase”. For `NC[C@H](O)c1ccc(O)c(O)c1` [norepinephrine, reference compound], in series [2] (absence of compound (control), 1 μM norepinephrine for 2 hours), the “PGC-1α mRNA, norepinephrine alone” value is recorded as “did not produce an increase”.

As for `CCc1ccc(C(=O)COc2ccc(CC3SC(=O)[N-]C3=O)cc2)nc1.[Na+]` (stereo not shown) [sodium salt of Compound A, Sodium 5-{4-[2-(5-ethylpyridin-2-yl)-2-oxoethoxy]benzyl}-2,4-dioxo-1,3-thiazolidin-3-ide], the lowering blood glucose entry in series [3] is given as “excellent dose response”. In series [4], the “absolute bioavailability of major metabolite versus free base” value is “significantly higher bioavailability” and the “absolute bioavailability of parent compound versus free base” value was “significantly higher bioavailability”. Take `COc1cccc(C(=O)COc2ccc(CC3SC(=O)[N-]C3=O)cc2)c1.[Na+]` (stereo not shown) [sodium salt of Compound B, Sodium 5-{4-[2-(3-methoxyphenyl)-2-oxoethoxy]benzyl}-2,4-dioxo-1,3-thiazolidin-3-ide]: in series [1], the “bioavailability (AUC of compound related materials) versus free acid” value is recorded as “significantly higher bioavailability”. Consider `CCc1ccc(C(=O)COc2ccc(CC3SC(=O)NC3=O)cc2)nc1` (stereo not shown) [5-(4-(2-(5-ethylpyridin-2-yl)-2-oxoethoxy)benzyl)-1,3-thiazolidine-2,4-dione], for which the “amount of UCP1 (Western blot)” value in series [5] is “dose-dependent increase”. Regarding `CCc1ccc(C(=O)COc2ccc(CC3SC(=O)NC3=O)cc2)nc1` (stereo not shown) [Compound A, 5-(4-(2-(5-ethylpyridin-2-yl)-2-oxoethoxy)benzyl)-1,3-thiazolidine-2,4-dione], in series [2], the “PGC-1α mRNA in the presence” value was “increase”. Consider `CCc1ccc([C@@H](O)COc2ccc(CC3SC(=O)NC3=O)cc2)nc1` (stereo partly shown) [Compound C], for which the “PGC-1α mRNA in the presence” value in series [2] is recorded as “increase”.
